According to patent US10150737B2, “Compounds for controlling arthropods” (priority 2013, dated 2018):

What was measured:
Ctenocephalides felis [1] = assay: Ctenocephalides felis - oral test; format: in vivo; conditions: application rate 100 ppm in citrated cattle blood; after 2 days
Method in brief: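 Compound in DMSO diluted into citrated cattle blood, fed through a parafilm membrane to about 20 unfed adult cat fleas. Kill in % scored after 2 days (100% = all dead).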

Lucilia cuprina = Lucilia cuprina test; format: in vivo; conditions: application rate 100 ppm; L1 larvae; after 2 days
Method in brief: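 About 20 L1 larvae placed on minced horsemeat treated with compound, formulated in DMSO and diluted with water to test concentration. Kill in % scored after 2 days (100% = all larvae dead, 0% = none).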

Phaedon cochleariae = Phaedon cochleariae - spray test; format: in vivo; conditions: larvae on Chinese cabbage leaf discs, after 7 days
Method in brief: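 Chinese cabbage leaf discs sprayed with compound formulated in acetone/DMF and water containing 1000 ppm emulsifier; once dry, infested with mustard beetle larvae. Efficacy (% larvae killed) scored after 7 days.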

[2] = logP determination by HPLC on a reversed-phase column (C18); format: physicochemical; conditions: for logP^a): HPLC-MS method a); for log P: HPLC-MS
Boophilus microplus = Boophilus microplus - injection test; format: in vivo; conditions: application rate 20 μg/animal, injection into engorged adult female ticks, after 7 days
Method in brief: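 Active ingredient in DMSO, 1 μl injected into the abdomen of 5 engorged adult female ticks, then held in a climate-controlled room. Efficacy scored after 7 days from laying of fertile eggs, with non-fertile-looking eggs kept about 42 days for larval hatch; 100% means no fertile eggs.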

[3] = system: Boophilus microplus Parkhurst strain, SP-resistant; assay: Boophilus microplus - dip test; format: in vivo; conditions: application rate 100 ppm; dip of engorged adult female ticks; after 7 days
Method: Test animals: cattle ticks (Boophilus microplus) Parkhurst strain, SP-resistant
Solvent: dimethyl sulphoxide
10 mg of active ingredient are dissolved in 0.5 ml of dimethyl sulphoxide. For the purpose of producing a suitable formulation, the active ingredient solution is diluted with water to the concentration desired in each case.
This active ingredient formulation is pipetted into tubes. 8-10 adult engorged female cattle ticks (Boophilus microplus) are transferred into a further tube with holes. The tube is immersed into the active ingredient formulation, and all the ticks are completely wetted. After the liquid has run out, the ticks are transferred on filter discs into plastic dishes and stored in a climate-controlled room.
Efficacy is assessed after 7 days by laying of fertile eggs. Eggs which are not visibly fertile are stored in a climate-controlled cabinet until the larvae hatch after about 42 days. An efficacy of 100% means that none of the ticks has laid any fertile eggs; 0% means that all the eggs are fertile.

Myzus persicae = Myzus persicae - spray test; format: in vivo; conditions: Chinese cabbage leaf discs, after 6 days
Method: Solvent: 78 parts by weight of acetone and 1.5 parts by weight of dimethylformamide
Emulsifier: alkylaryl polyglycol ether
To produce an appropriate active ingredient formulation, 1 part by weight of active ingredient is dissolved using the specified parts by weight of solvent and made up with water containing an emulsifier concentration of 1000 ppm until the desired concentration is attained. To produce further test concentrations, the preparation is diluted with emulsifier-containing water.
Discs of Chinese cabbage leaves (Brassica pekinensis) infested by all stages of the green peach aphid (Myzus persicae) are sprayed with an active ingredient formulation of the desired concentration.
After 6 days, efficacy in % is determined. 100% means that all the aphids have been killed; 0% means that none of the aphids have been killed.

Tetranychus urticae = Tetranychus urticae - spray test, OP-resistant; format: in vivo; conditions: bean leaf discs, after 6 days
Method in brief: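 Compound dissolved in acetone/DMF, diluted with water containing 1000 ppm alkylaryl polyglycol ether emulsifier to test concentrations. Bean leaf discs infested with all stages of spider mites were sprayed; % kill determined after 6 days (100% = all mites dead, 0% = none).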

Spodoptera frugiperda = Spodoptera frugiperda - spray test; format: in vivo; conditions: caterpillars on maize leaf discs, after 7 days
Method in brief: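 Maize leaf discs sprayed with compound formulated in acetone/DMF and diluted in water containing 1000 ppm alkylaryl polyglycol ether emulsifier, then infested with armyworm caterpillars after drying. Efficacy scored after 7 days as % caterpillars killed (100% all, 0% none).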

Rhipicephalus sanguineus = Rhipicephalus sanguineus - in vitro contact tests with adult brown dog ticks; format: in vivo; conditions: after 48 h, ticks dead or moribund
Method: (§1) For the coating of the test tubes, 9 mg of active ingredient are first dissolved in 1 ml of acetone p.a. and then diluted to the desired concentration with acetone p.a. 250 μl of the solution are distributed homogeneously on the inner walls and base of a 25 ml test tube by turning and rocking on an orbital shaker (rocking rotation at 30 rpm for 2 h). With 900 ppm active ingredient solution and internal surface 44.7 cm^2, given homogeneous distribution, an area-based dose of 5 μg/cm^2 is achieved.
After the solvent has evaporated off, the tubes are populated with 5-10 adult dog ticks (Rhipicephalus sanguineus), sealed with a perforated plastic lid and incubated in a horizontal position in the dark at room temperature and ambient humidity. After 48 h, efficacy is determined. To this end, the ticks are knocked to the floor of the tube and incubated on a hotplate at 45-50° C. for not more than 5 min. Ticks which remain motionless on the floor or move in such an uncoordinated manner that they are unable to deliberately avoid the heat by climbing upwards are considered to be dead or moribund.
An efficacy of 100% means that all the ticks were dead or moribund. 0% efficacy means that none of the ticks had been harmed.

Ctenocephalides felis [4] = assay: Ctenocephalides felis - in vitro contact tests with adult cat fleas; format: in vivo; conditions: application rate 5 μg/cm2 (=500 g/ha); after 48 h; fleas dead or moribund
Method: as §1, with “surface area” for “surface”
After the solvent has evaporated off, the tubes are populated with 5-10 adult cat fleas (Ctenocephalides felis), sealed with a perforated plastic lid and incubated in a horizontal position at room temperature and ambient humidity. After 48 h, efficacy is determined. To this end, the test tubes are stood upright and the fleas are knocked to the base of the tube. Fleas which remain motionless at the base or move in an uncoordinated manner are considered to be dead or moribund.
100% efficacy means that all the fleas were dead or moribund. 0% efficacy means that no fleas were harmed.

Musca domestica = Musca domestica test; format: in vivo; conditions: application rate 100 ppm; adult houseflies; after 2 days
Method in brief: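 Compound in DMSO, diluted with water, applied to a sugar-solution sponge; vessels hold 10 adult houseflies. Percent mortality scored after 2 days.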

[5] = reversed-phase column (C18), Table I-T3

| Compound | efficacy (kill) (Ctenocephalides felis [1]) [%] | efficacy (kill) (Lucilia cuprina) [%] | efficacy (Phaedon cochleariae; application rate 100 g/ha) [%] | efficacy (laying of fertile eggs) (Boophilus microplus) [%] | efficacy (laying of fertile eggs) [3] [%] | efficacy (Myzus persicae; application rate 100 g/ha) [%] | efficacy (Tetranychus urticae; application rate 100 g/ha) [%] | efficacy (Spodoptera frugiperda; application rate 100 g/ha) [%] | efficacy (Phaedon cochleariae; application rate 500 g/ha) [%] | efficacy (Tetranychus urticae; application rate 500 g/ha) [%] | efficacy (Spodoptera frugiperda; application rate 500 g/ha) [%] | efficacy (Ctenocephalides felis [4]) [%] | log P [2, 5] | efficacy (kill) (Musca domestica) [%] | logP^a) ([2]; reversed-phase column (C18)) | further results |
| --- | --- | --- | --- | --- | --- | --- | --- | --- | --- | --- | --- | --- | --- | --- | --- | --- |
| CCc1cc(C(F)(C(F)(F)F)C(F)(F)F)ccc1-n1cc(-c2ccc(Cl)c(C(=O)NC3CC3)c2)cn1 [I-T3-39] | 100 | 100 | 100 | 100 | 100 | 90 | 100 | 100 |  |  |  |  |  |  |  | logP^a) [2]: 4.6; logP^a) [2, 5]: 4.6 |
| CCc1cc(C(F)(C(F)(F)F)C(F)(F)F)cc(C)c1-n1cc(-c2ccc(Cl)c(C(=O)NC3CSC3)c2)cn1 [I-T3-47] | 100 | 100 |  | 100 |  |  |  |  | 100 | 100 | 100 |  |  |  |  | logP^a) [2]: 5.0; logP^a) [2, 5]: 5.0; efficacy (Rhipicephalus sanguineus; application rate 5 μg/cm2): 100% |
| CN(C(=O)c1cc(-c2cnn(-c3c(Cl)cc(C(F)(F)F)cc3Cl)c2)cnc1Cl)C1CC1 [I-T3-99] | 100 | 100 | 100 | 100 | 90 | 100 | 100 | 100 |  |  |  | 100 | 3.5 | 90 |  | logP^a) [2]: 3.5 |
| CN(C(=O)c1cc(-c2cnn(-c3c(Cl)cc(C(F)(C(F)(F)F)C(F)(F)F)cc3C(F)(F)F)c2)cnc1Cl)C1CC1 [I-T3-113] | 100 | 100 |  | 100 | 100 | 100 |  |  | 100 | 100 | 100 |  | 4.0 | 100 | 4.0 |  |
| Cc1cc(C(F)(C(F)(F)F)C(F)(F)F)cc(C)c1-n1cc(-c2cnc(C)c(C(=O)N(C)C3(C#N)CC3)c2)cn1 [I-T3-115] | 100 | 100 |  | 100 | 100 | 100 |  |  | 100 | 100 | 100 | 100 | 3.8 | 100 | 3.8 |  |
| Cc1cc(C(F)(C(F)(F)F)C(F)(F)F)cc(C(F)(F)F)c1-n1cc(-c2cnc(C)c(C(=O)N(C)C3CC3)c2)cn1 [I-T3-118] | 100 | 100 |  | 100 | 100 | 100 |  |  | 100 | 90 | 100 | 100 | 3.8 | 100 | 3.8 |  |
| Cc1cc(C(F)(C(F)(F)F)C(F)(F)F)cc(C)c1-n1cc(-c2cnc(C)c(C(=O)N(C)C3CC3)c2)cn1 [I-T3-120] | 100 | 100 |  | 100 | 100 | 100 |  |  | 100 | 100 | 100 | 100 | 3.6 | 100 | 3.6 | efficacy (Myzus persicae; application rate 500 g/ha): 90% |
| Cc1ncc(-c2cnn(-c3c(Cl)cc(C(F)(C(F)(F)F)C(F)(F)F)cc3C(F)(F)F)c2)cc1C(=O)N(C)C1CC1 [I-T3-130] | 100 | 100 | 100 | 100 | 100 | 100 | 100 | 100 |  |  |  | 100 | 3.8 | 100 | 3.8 |  |
| Cc1ncc(-c2cnn(-c3c(Cl)cc(C(F)(C(F)(F)F)C(F)(F)F)cc3Cl)c2)cc1C(=O)N(C)C1CC1 [I-T3-133] | 100 | 100 | 100 | 100 | 100 |  | 100 | 100 |  |  |  | 100 | 3.7 | 100 | 3.7 |  |
| COc1ncc(-c2cnn(-c3c(C)cc(C(F)(C(F)(F)F)C(F)(F)F)cc3C)c2)cc1C(=O)NC1(C#N)CC1 [I-T3-141] | 100 | 100 | 100 | 100 |  |  |  | 100 |  |  |  |  | 4.4 | 100 | 4.4 | efficacy (Rhipicephalus sanguineus; application rate 1 μg/cm2): 100% |
| Cc1cc(C(F)(C(F)(F)F)C(F)(F)F)cc(C)c1-c1cnn(-c2ccc(Cl)c(C(=O)NC3CC3)c2)c1 [I-T4-1, N-cyclopropyl-2-chloro-5-[4-[2,6-dimethyl-4-[1,2,2,2-tetrafluoro-1-(trifluoromethyl)ethyl]phenyl]pyrazol-1-yl]benzamide] |  |  |  |  |  |  |  |  |  |  |  |  |  |  |  | logP ([2]; HPLC, C18 reversed phase, acetonitrile/water with formic acid, EEC Directive 79/831 Annex V.A8): 4.7; pest or weed control at 0.02 mg (Boophilus microplus; Rhipicephalus microplus, 168 h, read-out: efficacy (laying of fertile eggs)): 100%; efficacy (Rhipicephalus sanguineus; application rate 5 μg/cm2): 100% |
